# Experimental data as given in patent US10442835B2, “Water-soluble rapamycin derivatives” (Zhejiang Hisun Pharmaceutical Co., Ltd., priority 2016, dated 2019).
# Several values for one entry are separate records, joined by “and”; a condition that tells them apart may be missing. Equal values may be shown once.
# Assays:
# [1] = test system: human liver cancer cell HepG2; assay: In vitro activity assay, growth of HepG2 (thymidine incorporation); type: cell-based; conditions: 48 h
# Source text: (§1) The anti-tumor activity and toxicity of the compounds according to the present invention can be assayed through standard operational procedures of pharmacological experiment. The experiments carried out herein can test the inhibitory effect of the compounds according to the present invention on the growth of human liver cancer cell HepG2, lung cancer cell NCI460, prostate cancer cell DU145, prostate cancer cell PC3, and human breast cancer cell MDA-MB-435. The operational procedure used is briefly described below by taking the inhibitory activity assay against human liver cancer cell HepG2 as an example.
# Human liver cancer cell HepG2 grew in the follow medium:
# Preparation of the growth medium: BRL minimum essential medium with Earle Salts (500 mL), with the addition of the following agents:
# (§2) The operational procedure for the assay is as follows:
# (§3) 1. Cells after being trypsinized were inoculated in 96-well plates at a concentration of 10^4 cells/well, and allowed to grow in a medium with a final volume of 200 μL. The 96-well plates after inoculation are allowed to stand for 24 hours at 37° C., in order to allow the cells to adhere to the surface of the wells.
# (§4) 2. The medium was removed by carefully pipetting without disturbing the cell monolayer. 200 μL Fresh medium was added into each well. It is arranged to make it possible to collect samples from enough wells to run the experiments in triplicate.
# (§5) 3. The compounds to be tested according to the present invention were dissolved into 10 μL phosphate buffered solution (PBS) and incubated for 48 h at 37° C.
# (§6) 4. In the last 6 h of incubation, cells in each well of the 96-well plates were labeled by 1 microcurie T thymidine (New England Nuclear thymidine), by adding 10 μL PBS containing 1 microcurie T thymidine (which was added into the PBS on the day of collecting the samples for test). The 96-well plates were then returned to the incubator and incubated for the last 6 h.
# (§7) 5. Without disturbing the cell monolayer, the radioactive medium was removed by pipetting. Then 50 μL of BRL 10×trypsin was added to each well, followed by incubation at 37° C. for 10 minutes or until the cell monolayer was detached from the bottom (or the wall) of each well. Samples were collected on glass-fiber diskettes using a Skatron 96-well cell harvester. Cells depositing on the glass-fiber diskettes were counted in a Wallac Betaplate counter.
# lung cancer cell NCI460 = assay: In vitro activity assay, growth of NCI460; type: cell-based; conditions: NCI-460, 48 h
# Source text: as §1, §2, §3, §4, §5, §6, §7
# [2] = test system: prostate cancer cell DU145; assay: In vitro activity assay, growth of DU145; type: cell-based; conditions: Homo sapiens; DU-145; 48 h
# Source text: as §1, §2, §3, §4, §5, §6, §7
# prostate cancer cell PC3 = assay: In vitro activity assay, growth of PC3; type: cell-based; conditions: 48 h
# Source text: as §1, §2, §3, §4, §5, §6, §7
# [3] = test system: human breast cancer cell MDA-MB-435; assay: In vitro activity assay, growth of MDA-MB-435; type: cell-based; conditions: 48 h
# Source text: as §1, §2, §3, §4, §5, §6, §7
# [4] = test system: human lung cancer cell NCI-H460; assay: In vivo inhibitory activity against NCI-H460 tumor in nude mice; conditions: everolimus 5 mg/kg, compound I-1 6.8 mg/kg, qw 4×
# DU145 = assay: In vivo tumor inhibitory efficacy against DU145 tumor in nude mice, intragastrical vs injection; conditions: G1 everolimus 5 mg/kg intragastrical, 3×/w, 4 w
# Experimental: (§8) DU145 (the 3rd generation) tumors in the rapid proliferation stage inoculated in the axilla of nude mice were cut into tumor lumps with a size of 1 mm*1 mm*1 mm and then were inoculated subcutaneously to the right limb of nude mice using a trocar under a sterile condition. When the tumors grow to 150-200 mm^3, the mice were randomly divided into three groups and then administrated with the compounds for 4 weeks. The major diameter (a) and the minor diameter (b) of the tumors were measured 2 or 3 times a week. The tumor volume (TV) was calculated with the following equation: TV=½×a×b^2. Tumors were stripped and weighted at Day 28 and the tumor inhibition rate was calculated using the following equation: (tumor weight of control−tumor weight of experimental group)/tumor weight of control×100%.
# (§9) The nude mice were divided into 3 groups with 4 mice per group when the tumors averagely grew to about 185-200 mm^3, depending on the growth regularity of the tumor and the dosage regimen.
# [5] = test system: human renal cell carcinoma OS-RC-2; assay: In vivo inhibitory activity against human renal cell carcinoma OS-RC-2 in nude mice
# Experimental: The tumor inhibition rate was calculated.
# [6] = Body weight of DU145 tumor nude mice; conditions: G1 everolimus 5 mg/kg intragastrical, 3×/w, 4 w;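 note: dosing started once xenografts reached 150-200 mm^3, with mice randomized into three groups, loss of body weight served as an indirect sign of drug toxicity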
# Experimental: as §8, §9
# G1: positive drug group: Everolimus (5 mg/kg, qw, 4 w, 3×/w); administration route: intragastrical administration;
# [7] = Body weight of NCI-H460 tumor nude mice; conditions: everolimus 5 mg/kg, compound I-1 6.8 mg/kg, qw 4×;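 note: Tumor-bearing mice dosed for 4 weeks once tumors reached 150–200 mm^3, with a vehicle control group, and body weight loss taken as an indirect sign of drug toxicity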
# Experimental: NCI-H460 (the 3rd generation) tumors in the rapid proliferation stage inoculated in the axilla of nude mice were cut into tumor lumps with a size of 1 mm*1 mm*1 mm and then were inoculated subcutaneously to the right limb of nude mice using a trocar under a sterile condition. When the tumors grew to 150˜200 mm^3, the mice were divided into groups and then administrated with the compounds for 4 weeks. The major diameter (a) and the minor diameter (b) of the tumors were measured two or three times a week. The tumor volume (TV) and the relative tumor proliferation rate (T/C) were calculated. The equation for calculating the tumor volume is: TV=½×a×b^2. The equation for calculating the relative tumor proliferation rate is T/C=TRTC/CRTV (TRTC: average relative tumor volume in the treatment group; CRTV: average relative tumor volume in the vehicle control group). Tumors were stripped and weighted at Day 28 and the tumor-inhibition rate was calculated with the following equation: (tumor weight of control−tumor weight of experimental group)/tumor weight of control×100%.
# Grouping method: the mice were divided into 3 groups with 6 mice per group when the tumors averagely grew to about 195 mm^3, depending on the growth regularity of the tumor and the dosage regimen. Administration route: intragastrical administration.
# G1: Control (vehicle, qw 4×, iv)
# G2: Positive drug group: Everolimus (5 mg/kg, qw 4×, iv)
compound,measurement,setting,value
"CO[C@H]1C[C@@H]2CC[C@@H](C)[C@@](O)(O2)C(=O)C(=O)N2CCCC[C@H]2C(=O)O[C@H]([C@H](C)C[C@@H]2CC[C@@H](OCCO)[C@H](OC)C2)CC(=O)[C@H](C)/C=C(\C)[C@@H](O)[C@@H](OC)C(=O)[C@H](C)C[C@H](C)/C=C/C=C/C=C/1C [Everolimus, reference compound]",IC50,[1],52.29 ± 0.006 µM
same,IC50,lung cancer cell NCI460,99.811 ± 0.004 µM
same,IC50,[2],57.327 ± 0.005 µM
same,IC50,prostate cancer cell PC3,30.27 ± 0.006 µM
same,IC50,[3],62.57 ± 0.003 µM
same,Mean Volume of Tumor,[4]; Day 0,194.8659 mm^3
same,Mean Volume of Tumor,[4]; Day 3,264.7517 mm^3
same,TRTV (average relative tumor volume in the treatment group),[4]; Day 3,1.3586
same,Mean Volume of Tumor,[4]; Day 7,356.6133 mm^3
same,TRTV (average relative tumor volume in the treatment group),[4]; Day 7,1.8300
same,Mean Volume of Tumor,[4]; Day 10,457.1105 mm^3
same,TRTV (average relative tumor volume in the treatment group),[4]; Day 10,2.3458
same,Mean Volume of Tumor,[4]; Day 14,626.5192 mm^3
same,TRTV (average relative tumor volume in the treatment group),[4]; Day 14,3.2151
same,Mean Volume of Tumor,[4]; Day 17,730.3766 mm^3
same,TRTV (average relative tumor volume in the treatment group),[4]; Day 17,3.7481
same,Mean Volume of Tumor,[4]; Day 21,1386.2102 mm^3
same,TRTV (average relative tumor volume in the treatment group),[4]; Day 21,6.6005
same,Mean Volume of Tumor,[4]; Day 24,1593.5901 mm^3
same,TRTV (average relative tumor volume in the treatment group),[4]; Day 24,7.1515
same,Tumor Inhibition Rate,"[4]; Day 28, by tumor weight",56% and 56.01%
same,Mean Volume of Tumor,[4]; Day 28,1955.7073 mm^3
same,TRTV (average relative tumor volume in the treatment group),[4]; Day 28,9.5230
same,Tumor Weight ± SD,[4]; Day 28,1.1741 ± 0.3687 g
same,Mean Volume of Tumor,DU145; Day 0,198.71 mm^3
same,Mean Volume of Tumor,DU145; Day 3,216.57 mm^3
same,Mean Volume of Tumor,DU145; Day 7,208.07 mm^3
same,Mean Volume of Tumor,DU145; Day 10,215.24 mm^3
same,Mean Volume of Tumor,DU145; Day 14,236.94 mm^3
same,Mean Volume of Tumor,DU145; Day 17,268.62 mm^3
same,Mean Volume of Tumor,DU145; Day 21,298.50 mm^3
same,Mean Volume of Tumor,DU145; Day 24,289.57 mm^3
same,Mean Volume of Tumor,DU145; Day 28,302.22 mm^3
same,Tumor Inhibition Rate,[5]; G2 everolimus 2 mg/kg ig 3×/qw,35.6%
same,Tumor Inhibition Rate,[5]; G3 everolimus 6 mg/kg ig 3×/qw,41.1%
same,Tumor Weight ± SD,"[5]; end of experiment, G3 everolimus 6 mg/kg ig 3×/qw",0.4093 ± 0.3863 g
same,"Body Weight, mean value",[6]; Day 0,24.36 g
same,"Body Weight, mean value",[6]; Day 3,24.68 g
same,Decrease rate (body weight),[6]; Day 3,−1.32%
same,Decrease in body weight,[6]; Day 3 vs Day 0,-0.32 g
same,"Body Weight, mean value",[6]; Day 7,24.99 g
same,Decrease rate (body weight),[6]; Day 7,−2.59%
same,Decrease in body weight,[6]; Day 7 vs Day 0,-0.63 g
same,"Body Weight, mean value",[6]; Day 10,24.93 g
same,Decrease rate (body weight),[6]; Day 10,−2.32%
same,Decrease in body weight,[6]; Day 10 vs Day 0,-0.57 g
same,"Body Weight, mean value",[6]; Day 14,24.94 g
same,Decrease rate (body weight),[6]; Day 14,−2.38%
same,Decrease in body weight,[6]; Day 14 vs Day 0,-0.58 g
same,"Body Weight, mean value",[6]; Day 17,25.88 g
same,Decrease rate (body weight),[6]; Day 17,−6.24%
same,Decrease in body weight,[6]; Day 17 vs Day 0,-1.52 g
same,"Body Weight, mean value",[6]; Day 21,25.27 g
same,Decrease rate (body weight),[6]; Day 21,−3.75%
same,Decrease in body weight,[6]; Day 21 vs Day 0,-0.91 g
same,"Body Weight, mean value",[6]; Day 24,25.33 g
same,Decrease rate (body weight),[6]; Day 24,−3.96%
same,Decrease in body weight,[6]; Day 24 vs Day 0,-0.97 g
same,"Body Weight, mean value",[6]; Day 28,25.31 g
same,Decrease rate (body weight),[6]; Day 28,−3.90%
same,Decrease in body weight,[6]; Day 28 vs Day 0,-0.95 g
same,"Body Weights, mean value",[7]; Day 0,24.50 g
same,"Body Weights, mean value",[7]; Day 3,24.38 g
same,Decrease rate (body weight),[7]; Day 3,0.51%
same,Decrease in body weight,[7]; Day 3 vs Day 0,0.13 g
same,"Body Weights, mean value",[7]; Day 7,25.44 g
same,Decrease rate (body weight),[7]; Day 7,−3.82%
same,Decrease in body weight,[7]; Day 7 vs Day 0,-0.94 g
same,"Body Weights, mean value",[7]; Day 10,24.50 g
same,Decrease rate (body weight),[7]; Day 10,0.00%
same,Decrease in body weight,[7]; Day 10 vs Day 0,0.00 g
same,"Body Weights, mean value",[7]; Day 14,25.68 g
same,Decrease rate (body weight),[7]; Day 14,−4.83%
same,Decrease in body weight,[7]; Day 14 vs Day 0,-1.18 g
same,"Body Weights, mean value",[7]; Day 17,25.39 g
same,Decrease rate (body weight),[7]; Day 17,−3.63%
same,Decrease in body weight,[7]; Day 17 vs Day 0,-0.89 g
same,"Body Weights, mean value",[7]; Day 21,26.13 g
same,Decrease rate (body weight),[7]; Day 21,−6.65%
same,Decrease in body weight,[7]; Day 21 vs Day 0,-1.63 g
same,"Body Weights, mean value",[7]; Day 24,25.09 g
same,Decrease rate (body weight),[7]; Day 24,−2.41%
same,Decrease in body weight,[7]; Day 24 vs Day 0,-0.59 g
same,"Body Weights, mean value",[7]; Day 28,26.14 g
same,Decrease rate (body weight),[7]; Day 28,−6.67%
same,Decrease in body weight,[7]; Day 28 vs Day 0,-1.64 g
